{"source": "DBAASP", "assay_in_all_cases": "≥ marks a high value that may be exact or a test limit, other limits are often not marked, values filed in µg/mL are converted to µM", "key": {"[1]": {"system": "Pseudomonas aeruginosa PA-W1"}, "[2]": {"system": "Pseudomonas aeruginosa PAO1"}, "Klebsiella pneumoniae": {"system": "Klebsiella pneumoniae"}, "Staphylococcus aureus": {"system": "Staphylococcus aureus"}, "Escherichia coli K-12": {"system": "Escherichia coli K-12"}, "[3]": {"system": "Staphylococcus aureus NCTC 8325-4"}, "[4]": {"system": "Pseudomonas aeruginosa PA-W14"}, "[5]": {"system": "Escherichia coli CGMCC 3373"}, "[6]": {"system": "Bacillus subtilis CICC 10034"}, "[7]": {"system": "Escherichia coli CICC 10302"}, "[8]": {"system": "Salmonella enterica subsp. enterica serovar Paratyphi B CICC 10437"}, "[9]": {"system": "Alcaligenes faecalis ATCC 8750"}, "[10]": {"system": "Serratia marcescens ATCC 4112"}, "[11]": {"system": "Staphylococcus aureus CICC 10306"}, "[12]": {"system": "Staphylococcus aureus CICC 10384"}, "[13]": {"system": "Escherichia coli CICC 10293"}, "[14]": {"system": "Escherichia coli CICC 10300"}, "[15]": {"system": "Pseudomonas aeruginosa CICC 21636"}, "[16]": {"system": "Enterobacter cloacae CICC 21539"}, "[17]": {"system": "Listeria innocua CICC 10417"}, "[18]": {"system": "Bacillus megaterium CICC 10448"}, "[19]": {"system": "Escherichia coli ATCC 23506"}, "[20]": {"system": "Streptococcus pneumoniae ATCC 49619"}, "[21]": {"system": "Staphylococcus aureus ATCC 9144"}, "[22]": {"system": "Pseudomonas aeruginosa ATCC 9027"}, "[23]": {"system": "Enterococcus faecalis PCM 2673"}, "[24]": {"system": "Candida albicans ATCC 10231"}, "[25]": {"system": "Aspergillus niger ATCC 16404"}, "[26]": {"system": "Escherichia coli ATCC 25922"}, "[27]": {"system": "Staphylococcus aureus ATCC 25923"}, "[28]": {"system": "Klebsiella pneumoniae ATCC 700603"}, "[29]": {"system": "Candida glabrata ATCC 15126"}, "[30]": {"system": "Bacillus cereus ATCC 11778"}, "[31]": {"system": "Pseudomonas aeruginosa ATCC 27853"}, "[32]": {"system": "Streptococcus pyogenes ATCC 19615"}, "[33]": {"system": "Salmonella enterica subsp. enterica serovar Enteritidis ATCC 13076"}, "[34]": {"system": "Staphylococcus aureus ATCC 29213"}, "[35]": {"system": "Serratia marcescens ATCC 21202"}}}
{"smiles": "NCCCC[C@H](NC(=O)[C@H](CCCCN)NC(=O)[C@H](Cc1c[nH]c2ccccc12)NC(=O)[C@H](Cc1c[nH]c2ccccc12)NC(=O)[C@H](CCCCN)NC(=O)[C@H](CCCCN)NC(=O)[C@H](Cc1c[nH]c2ccccc12)NC(=O)[C@H](Cc1c[nH]c2ccccc12)NC(=O)[C@H](CCCCN)NC(=O)[C@H](CCCCN)NC(=O)[C@@H](N)Cc1c[nH]c2ccccc12)C(=O)N[C@@H](Cc1c[nH]c2ccccc12)C(N)=O", "note": "[WKKWWKKWWKKW]", "values": [{"measurement": "MIC", "setting": "[1]", "value": 15.6, "unit": "µM"}, {"measurement": "MIC", "setting": "[2]", "value": 15.6, "unit": "µM"}, {"measurement": "MIC", "setting": "Klebsiella pneumoniae", "value": 15.6, "unit": "µM"}, {"measurement": "MIC", "setting": "Staphylococcus aureus", "value": 7.81, "unit": "µM"}, {"measurement": "MIC", "setting": "Escherichia coli K-12", "value": 15.6, "unit": "µM"}, {"measurement": "MIC", "setting": "[3]", "value": 7.81, "unit": "µM"}, {"measurement": "MIC", "setting": "[4]", "value": 31.3, "unit": "µM"}]}
{"smiles": "CC[C@H](C)[C@H](NC(=O)[C@H](C)N)C(=O)NCC(=O)N[C@@H](Cc1cnc[nH]1)C(=O)N[C@@H](CS)C(=O)N[C@@H](CC(C)C)C(=O)NCC(=O)N[C@@H](C)C(=O)N[C@H](C(=O)N[C@@H](CC(C)C)C(=O)O)[C@@H](C)O", "note": "[AIGHCLGATL]", "values": [{"measurement": "MIC", "setting": "[5]", "value": 8.38, "unit": "µM"}, {"measurement": "MIC", "setting": "[6]", "value": "≥ 33.5", "unit": "µM"}, {"measurement": "MIC", "setting": "[7]", "value": 8.38, "unit": "µM"}, {"measurement": "MIC", "setting": "[8]", "value": 8.38, "unit": "µM"}, {"measurement": "MIC", "setting": "[9]", "value": 8.38, "unit": "µM"}, {"measurement": "MIC", "setting": "[10]", "value": 8.38, "unit": "µM"}, {"measurement": "MIC", "setting": "[11]", "value": "≥ 33.5", "unit": "µM"}, {"measurement": "MIC", "setting": "[12]", "value": "≥ 33.5", "unit": "µM"}, {"measurement": "MIC", "setting": "[13]", "value": 8.38, "unit": "µM"}, {"measurement": "MIC", "setting": "[14]", "value": 8.38, "unit": "µM"}, {"measurement": "MIC", "setting": "[15]", "value": 4.19, "unit": "µM"}, {"measurement": "MIC", "setting": "[16]", "value": 4.19, "unit": "µM"}, {"measurement": "MIC", "setting": "[17]", "value": "≥ 33.5", "unit": "µM"}, {"measurement": "MIC", "setting": "[18]", "value": 8.38, "unit": "µM"}]}
{"smiles": "CC[C@H](C)[C@H](NC(=O)[C@H](C)NC(=O)[C@H](CCC(=O)O)NC(=O)[C@H](CO)NC(=O)[C@@H](N)Cc1ccccc1)C(=O)N[C@@H](CCCCN)C(=O)N[C@@H](CCCCN)C(=O)N[C@H](C(=O)N[C@H](C(=O)N[C@@H](CC(=O)O)C(=O)N[C@@H](Cc1ccccc1)C(=O)N[C@@H](CC(C)C)C(=O)NCC(N)=O)[C@@H](C)CC)[C@@H](C)CC", "note": "[FSEAIKKIIDFLG]", "values": [{"measurement": "MIC", "setting": "[19]", "value": "≥ 173", "unit": "µM"}, {"measurement": "MIC", "setting": "[20]", "value": "≥ 173", "unit": "µM"}, {"measurement": "MIC", "setting": "[21]", "value": "≥ 173", "unit": "µM"}, {"measurement": "MIC", "setting": "[22]", "value": "> 173", "unit": "µM"}, {"measurement": "MIC", "setting": "[23]", "value": "≥ 173", "unit": "µM"}, {"measurement": "MIC", "setting": "[24]", "value": "> 173", "unit": "µM"}, {"measurement": "MIC", "setting": "[25]", "value": "≥ 173", "unit": "µM"}, {"measurement": "MIC", "setting": "[26]", "value": 173, "unit": "µM"}, {"measurement": "MIC", "setting": "[27]", "value": "> 173", "unit": "µM"}, {"measurement": "MIC", "setting": "[28]", "value": 86.4, "unit": "µM"}, {"measurement": "MIC", "setting": "[29]", "value": "≥ 173", "unit": "µM"}]}
{"smiles": "CSCC[C@H](NC(=O)[C@H](CO)NC(=O)[C@H](CS)NC(=O)[C@@H](NC(=O)[C@H](CCC(=O)O)NC(=O)[C@H](CC(C)C)NC(=O)[C@H](CC(C)C)NC(=O)[C@@H]1CCCN1C(=O)[C@H](CC(C)C)NC(=O)[C@@H](N)C(C)C)[C@@H](C)O)C(=O)N[C@H](C(=O)N[C@@H](CS)C(=O)N[C@@H](Cc1c[nH]c2ccccc12)C(=O)N[C@@H](CCC(=O)O)C(=O)N[C@@H](CC(N)=O)C(=O)N[C@@H](CC(N)=O)C(=O)N[C@@H](CCC(N)=O)C(=O)N[C@H](C(=O)N[C@@H](Cc1ccccc1)C(=O)NCC(=O)N[C@@H](CCCCN)C(=O)O)[C@@H](C)O)[C@@H](C)O", "note": "[VLPLLETCSMTCWENNQTFGK]", "values": [{"measurement": "MIC", "setting": "[30]", "value": "≥ 41.4", "unit": "µM"}, {"measurement": "MIC", "setting": "[31]", "value": "> 41.4", "unit": "µM"}, {"measurement": "MIC", "setting": "[32]", "value": "≥ 41.4", "unit": "µM"}, {"measurement": "MIC", "setting": "[33]", "value": "≥ 41.4", "unit": "µM"}, {"measurement": "MIC", "setting": "[34]", "value": "> 41.4", "unit": "µM"}, {"measurement": "MIC", "setting": "[35]", "value": "≥ 41.4", "unit": "µM"}, {"measurement": "MIC", "setting": "[26]", "value": "> 41.4", "unit": "µM"}, {"measurement": "MIC", "setting": "[28]", "value": "> 41.4", "unit": "µM"}]}
